In the assay the target is KRasG12C (M1-K169, biotinylated on the N-terminus) (Homo sapiens (Human), UniProt P01116, G12C). As to the kind of experiment: Covalent competition assay: scintillation proximity assay (SPA) quantifying covalent modification of KRASG12C. In kind it is binding. The settings on record: competition with radiolabeled covalent probe (Compound B/Compound A), 2 hours incubation, 10 nM KRasG12C. In a few lines:
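Scintillation proximity readout after streptavidin bead capture (30 min) of biotinylated KRasG12C(M1-K169):GDP, 10 nM final, which was covalently labelled over 2 h by 25 nM radio-probe plus 475 nM cold probe unless blocked by compound.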
Turning to `C=CC(=O)N1CC2(CC(n3nc(N4CCN(CC5(O)CC5)CC45CCC5)c(-c4c(Cl)c(C)cc5[nH]ncc45)c3C)C2)C1` (single isomer, unassigned) [Example 154b, 1-(6-(4-(5-chloro-6-methyl-1H-indazol-4-yl)-3-(8-((1-hydroxycyclopropyl)methyl)-5,8-diazaspiro[3.5]nonan-5-yl)-5-methyl-1H-pyrazol-1-yl)-2-azaspiro[3.3]heptan-2-yl)prop-2-en-1-one], the half-maximal inhibitory concentration (IC50) is 22 nM. To `C=CC(=O)N1CC2(CC(n3nc(N4CCN(C5COC5)C[C@]4(C)CC)c(-c4c(Cl)c(Cl)cc5[nH]ncc45)c3C)C2)C1` (single isomer, unassigned) [Example 155a] belongs 4000 nM; to `C=CC(=O)N1CC2(CC(n3nc(N4CCN(C5COC5)C[C@]4(C)CC)c(-c4c(Cl)c(Cl)cc5[nH]ncc45)c3C)C2)C1` (single isomer, unassigned) [Example 155b], 5 nM. To `C=CC(=O)N1CC2(CC(n3nc(N4CCN(C5CCOCC5)C[C@@]4(CC)C(F)F)c(-c4c(Cl)c(C)cc5[nH]ncc45)c3C)C2)C1` (single isomer, unassigned) [Example 156a] belongs more than 5000 nM; to `C=CC(=O)N1CC2(CC(n3nc(N4CCN(C5CCOCC5)C[C@@]4(CC)C(F)F)c(-c4c(Cl)c(C)cc5[nH]ncc45)c3C)C2)C1` (single isomer, unassigned) [Example 156b], 8 nM. `C=CC(=O)N1CC2(CC(n3nc(N4CCN(C5CCCOC5)C[C@]4(C)CC)c(-c4c(Cl)c(C)cc5[nH]ncc45)c3C)C2)C1` (single isomer, unassigned) [Example 157a]: the IC50 is more than 5000 nM. On to `C=CC(=O)N1CC2(CC(n3nc(N4CCN(C5CCCOC5)C[C@]4(C)CC)c(-c4c(Cl)c(C)cc5[nH]ncc45)c3C)C2)C1` (single isomer, unassigned) [Example 157b], for which the IC50 is more than 5000 nM. As for `C=CC(=O)N1CC2(CC(n3nc(N4CCN(C5CCCOC5)C[C@]4(C)CC)c(-c4c(Cl)c(C)cc5[nH]ncc45)c3C)C2)C1` (single isomer, unassigned) [Example 157c], the IC50 is 6 nM.

Take `C=CC(=O)N1CC2(CC(n3nc(N4CCN(C5CCCOC5)C[C@]4(C)CC)c(-c4c(Cl)c(C)cc5[nH]ncc45)c3C)C2)C1` (single isomer, unassigned) [Example 157d]: the IC50 was 7 nM. Regarding `C=CC(=O)N1CC2(CC(n3nc(N4CCN(C5COC5)C[C@]4(C)CC)c(-c4c(Cl)c(C)cc5[nH]nc(N)c45)c3C)C2)C1` (single isomer, unassigned) [Example 158a], the IC50 turned out to be 6 nM. With `C=CC(=O)N1CC2(CC(n3nc(N4CCN(C5COC5)C[C@]4(C)CC)c(-c4c(Cl)c(C)cc5[nH]nc(N)c45)c3C)C2)C1` (single isomer, unassigned) [Example 158b] the figure was 172 nM.

For the compound `C=CC(=O)N1CC2(CC(n3nc(N4CCN(C5COCCOC5)C[C@]4(C)CC)c(-c4c(Cl)c(C)cc5[nH]ncc45)c3C)C2)C1` (single isomer, unassigned) [Example 159a], the IC50 is 715 nM. In the case of `C=CC(=O)N1CC2(CC(n3nc(N4CCN(C5COCCOC5)C[C@]4(C)CC)c(-c4c(Cl)c(C)cc5[nH]ncc45)c3C)C2)C1` (single isomer, unassigned) [Example 159b], the IC50 is 9 nM. As for `C=CC(=O)N1CC2(CC(n3nc(N4CCN(CC(C)(C)O)CC45CCC5)c(-c4c(Cl)c(C)cc5[nH]ncc45)c3C)C2)C1` (single isomer, unassigned) [Example 160a, 1-(6-(4-(5-Chloro-6-methyl-1H-indazol-4-yl)-3-(8-(2-hydroxy-2-methylpropyl)-5,8-diazaspiro[3.5]nonan-5-yl)-5-methyl-1H-pyrazol-1-yl)-2-azaspiro[3.3]heptan-2-yl)prop-2-en-1-one], the IC50 was more than 5000 nM. With `C=CC(=O)N1CC2(CC(n3nc(N4CCN(CC(C)(C)O)CC45CCC5)c(-c4c(Cl)c(C)cc5[nH]ncc45)c3C)C2)C1` (single isomer, unassigned) [Example 160b, 1-(6-(4-(5-Chloro-6-methyl-1H-indazol-4-yl)-3-(8-(2-hydroxy-2-methylpropyl)-5,8-diazaspiro[3.5]nonan-5-yl)-5-methyl-1H-pyrazol-1-yl)-2-azaspiro[3.3]heptan-2-yl)prop-2-en-1-one] the figure was 27 nM.

As to `C=CC(=O)N1CC2(CC(n3nc(N4CCN(CC(C)(C)O)C[C@]4(C)CC)c(-c4c(Cl)c(C)cc5[nH]ncc45)c3C)C2)C1` (single isomer, unassigned) [Example 161a], the IC50 is 912 nM.

In the case of `C=CC(=O)N1CC2(CC(n3nc(N4CCN(CC(C)(C)O)C[C@]4(C)CC)c(-c4c(Cl)c(C)cc5[nH]ncc45)c3C)C2)C1` (single isomer, unassigned) [Example 161b], the half-inhibitory concentration (IC50) worked out at 8 nM. Take `C=CC(=O)N1CC2(CC(n3nc(N4CCN(CCO)CC45CCC5)c(-c4c(Cl)c(C)cc5[nH]ncc45)c3C)C2)C1` (single isomer, unassigned) [Example 162a, 1-(6-(4-(5-chloro-6-methyl-1H-indazol-4-yl)-3-(8-(2-hydroxyethyl)-5,8-diazaspiro[3.5]nonan-5-yl)-5-methyl-1H-pyrazol-1-yl)-2-azaspiro[3.3]heptan-2-yl)prop-2-en-1-one]: the concentration for half-maximal inhibition (IC50) is more than 5000 nM. To `C=CC(=O)N1CC2(CC(n3nc(N4CCN(CCO)CC45CCC5)c(-c4c(Cl)c(C)cc5[nH]ncc45)c3C)C2)C1` (single isomer, unassigned) [Example 162b, 1-(6-(4-(5-chloro-6-methyl-1H-indazol-4-yl)-3-(8-(2-hydroxyethyl)-5,8-diazaspiro[3.5]nonan-5-yl)-5-methyl-1H-pyrazol-1-yl)-2-azaspiro[3.3]heptan-2-yl)prop-2-en-1-one] belongs 27 nM.

For the compound `C=CC(=O)N1CC2(CC(n3nc(N4CCN(CCO)CC4(C)C)c(-c4c(Cl)c(C)cc5[nH]ncc45)c3C)C2)C1` (single isomer, unassigned) [Example 163a, 1-(6-(4-(5-chloro-6-methyl-1H-indazol-4-yl)-3-(4-(2-hydroxyethyl)-2,2-dimethylpiperazin-1-yl)-5-methyl-1H-pyrazol-1-yl)-2-azaspiro[3.3]heptan-2-yl)prop-2-en-1-one], the IC50 was more than 5000 nM. With `C=CC(=O)N1CC2(CC(n3nc(N4CCN(CCO)CC4(C)C)c(-c4c(Cl)c(C)cc5[nH]ncc45)c3C)C2)C1` (single isomer, unassigned) [Example 163b, 1-(6-(4-(5-chloro-6-methyl-1H-indazol-4-yl)-3-(4-(2-hydroxyethyl)-2,2-dimethylpiperazin-1-yl)-5-methyl-1H-pyrazol-1-yl)-2-azaspiro[3.3]heptan-2-yl)prop-2-en-1-one], the 50% inhibitory concentration (IC50) turned out to be 114 nM. To `C=CC(=O)N1CC2(CC(n3nc(N4CCN(CC(C)(C)O)C[C@@]4(C)CC)c(-c4c(Cl)c(C)cc5[nH]ncc45)c3C)C2)C1` (single isomer, unassigned) [Example 164a] belongs more than 5000 nM; to `C=CC(=O)N1CC2(CC(n3nc(N4CCN(CC(C)(C)O)C[C@@]4(C)CC)c(-c4c(Cl)c(C)cc5[nH]ncc45)c3C)C2)C1` (single isomer, unassigned) [Example 164b], 56 nM.

On to `C=CC(=O)N1CC2(CC(n3nc(N4CCN(CC(C)(C)O)CC45CCCC5)c(-c4c(Cl)c(C)cc5[nH]ncc45)c3C)C2)C1` (single isomer, unassigned) [Example 165a, 1-(6-(4-(5-chloro-6-methyl-1H-indazol-4-yl)-3-(9-(2-hydroxy-2-methylpropyl)-6,9-diazaspiro[4.5]decan-6-yl)-5-methyl-1H-pyrazol-1-yl)-2-azaspiro[3.3]heptan-2-yl)prop-2-en-1-one], for which the concentration for half-maximal inhibition (IC50) was more than 5000 nM. Turning to `C=CC(=O)N1CC2(CC(n3nc(N4CCN(CC(C)(C)O)CC45CCCC5)c(-c4c(Cl)c(C)cc5[nH]ncc45)c3C)C2)C1` (single isomer, unassigned) [Example 165b, 1-(6-(4-(5-chloro-6-methyl-1H-indazol-4-yl)-3-(9-(2-hydroxy-2-methylpropyl)-6,9-diazaspiro[4.5]decan-6-yl)-5-methyl-1H-pyrazol-1-yl)-2-azaspiro[3.3]heptan-2-yl)prop-2-en-1-one], the IC50 was 26 nM.

Take `C=CC(=O)N1CC2(CC(n3nc(N4CCN(CC(C)(C)O)C[C@@]4(C)C(F)F)c(-c4c(Cl)c(C)cc5[nH]ncc45)c3C)C2)C1` (single isomer, unassigned) [Example 166a]: the IC50 is more than 5000 nM. Consider `C=CC(=O)N1CC2(CC(n3nc(N4CCN(CC(C)(C)O)C[C@@]4(C)C(F)F)c(-c4c(Cl)c(C)cc5[nH]ncc45)c3C)C2)C1` (single isomer, unassigned) [Example 166b], for which the IC50 came out at 51 nM. In the case of `C=CC(=O)N1CC2(CC(n3nc(N4CCN(CC(C)(C)O)CC45CCC5)c(-c4c(Cl)c(F)cc5[nH]ncc45)c3C)C2)C1` (single isomer, unassigned) [Example 167a, 1-(6-(4-(5-chloro-6-fluoro-1H-indazol-4-yl)-3-(8-(2-hydroxy-2-methylpropyl)-5,8-diazaspiro[3.5]nonan-5-yl)-5-methyl-1H-pyrazol-1-yl)-2-azaspiro[3.3]heptan-2-yl)prop-2-en-1-one], the concentration for half-maximal inhibition (IC50) is more than 5000 nM. With `C=CC(=O)N1CC2(CC(n3nc(N4CCN(CC(C)(C)O)CC45CCC5)c(-c4c(Cl)c(F)cc5[nH]ncc45)c3C)C2)C1` (single isomer, unassigned) [Example 167b, 1-(6-(4-(5-chloro-6-fluoro-1H-indazol-4-yl)-3-(8-(2-hydroxy-2-methylpropyl)-5,8-diazaspiro[3.5]nonan-5-yl)-5-methyl-1H-pyrazol-1-yl)-2-azaspiro[3.3]heptan-2-yl)prop-2-en-1-one] the figure was 31 nM; with `C=CC(=O)N1CC2(CC(n3nc(N4CCN(C[C@@H]5COCCO5)CC45CCC5)c(-c4c(Cl)c(C)cc5[nH]ncc45)c3C)C2)C1` (single isomer, unassigned) [Example 169a], more than 5000 nM.

As usually defined, the IC50 is the concentration at which inhibition is half-maximal.

These data come from patent publication US20240317721A1, “PYRAZOLYL DERIVATIVES AS INHIBITORS OF THE KRAS MUTANT PROTEIN” (NOVARTIS AG, priority 2021, published 2024).
